For 20 molecules, IC50 results are on record in PubChem BioAssay AID504655 (Southern Research Specialized Biocontainment Screening …, 2011).

SMILES strings stand for the structures. Active and inactive are the calls of the source. The rule behind the calls is not given here.

The subject of this assay is HEp-2 cells, RSV CPE inhibition, cell viability. Kind of assay: inhibitors of RSV cytopathic effect, dose response, cell-based, HEp-2, synthesized compounds, set 7 (AID 504655).

As to `Cc1ccc(Cn2c(=O)n(Cc3ccc(C(=O)N(C)C)cc3)c(=O)c3ccccc32)cc1`, the IC50 (commonly the concentration needed to halve the response being measured) was > 50 µM (inactive). `COCCCNC(=O)c1ccc(Cn2c(=O)c3ccc(C(F)(F)F)cc3n(Cc3ccc(C)cc3)c2=O)cc1`: the IC50 was > 50 µM (inactive). Turning to `COCCCNC(=O)c1ccc(Cn2c(=O)c3ccc(C)cc3n(Cc3ccc(C)cc3)c2=O)cc1`, the IC50 is > 50 µM (inactive).

For `COc1ccccc1NC(=O)[C@@H]1CCCN1S(=O)(=O)c1cccc2nonc12`, the IC50 is > 50 µM (inactive). With `Cc1ccc(Cn2c(=O)n(Cc3ccc(C(=O)NC4CCCCC4)cc3)c(=O)c3ccccc32)cc1`, the IC50 was > 50 µM (inactive). On to `CNC(=O)c1ccc(Cn2c(=O)c3ccccc3n(Cc3ccc(C)cc3)c2=O)cc1`, for which the IC50 is 2.26 µM. Turning to `Cc1ccc(Cl)cc1NC(=O)[C@@H]1CCCN1S(=O)(=O)c1cccc2cccnc12`, the half-inhibitory concentration (IC50) was 6.11 µM.

For the molecule `Cc1ccc(Cn2c(=O)n(Cc3ccc(C(=O)N4CCCC4)cc3)c(=O)c3ccccc32)cc1`, the IC50 was > 50 µM (inactive). Take `Cc1ccc(Cn2c(=O)n(Cc3ccc(C(=O)NCc4ccccc4)cc3)c(=O)c3ccccc32)cc1`: the IC50 was > 50 µM (inactive). The figure for `O=C(NCc1ccc(Cl)cc1)C1CCN(S(=O)(=O)c2cccc3nonc23)CC1` is > 50 µM (inactive); for `COCCNC(=O)c1ccc(Cn2c(=O)c3ccccc3n(Cc3ccc(C)cc3)c2=O)cc1` it is 3.05 µM.

With `Cc1ccc(CNC(=O)C2CCN(S(=O)(=O)c3cccc4nonc34)CC2)c(C)c1`, the IC50 was > 50 µM (inactive). As for `O=C(NCc1cccc(Cl)c1)C1CCN(S(=O)(=O)c2cccc3nonc23)CC1`, the IC50 was > 50 µM (inactive). Take `COc1ccc(C)c(NC(=O)[C@@H]2CCCN2S(=O)(=O)c2cccc3cccnc23)c1`: the IC50 is 9.33 µM. Take `Cc1ccc(Cn2c(=O)n(Cc3ccc(C(=O)N4CCCCC4)cc3)c(=O)c3ccccc32)cc1`: the IC50 is > 50 µM (inactive).

As to `Cc1ccc(Cn2c(=O)n(Cc3ccc(C(=O)Nc4ccccc4)cc3)c(=O)c3ccccc32)cc1`, the IC50 is > 50 µM (inactive). Turning to `Cc1ccc(NC(=O)[C@@H]2CCCN2S(=O)(=O)c2cccc3nonc23)c(C)c1`, the IC50 was > 50 µM (inactive). With `Cc1ccc(Cn2c(=O)n(Cc3ccc(C(=O)N4CCOCC4)cc3)c(=O)c3ccccc32)cc1`, the IC50 was > 50 µM (inactive).

Regarding `COc1ccccc1CNC(=O)[C@@H]1CCCN1S(=O)(=O)c1cccc2nonc12`, the IC50 is > 50 µM (inactive).

With `COCCCNC(=O)c1ccc(Cn2c(=O)c3ccc(OC)cc3n(Cc3ccc(C)cc3)c2=O)cc1`, the IC50 was > 50 µM (inactive).
